Patent publication US12559480B2, “Methods of treatment using phenyl indole allosteric inhibitors of P97 ATPase” (University of Pittsburgh—Of the Commonwealth System of …, priority 2015, dated 2026)

Target: p97 ATPase WT (Homo sapiens (Human), UniProt P55072)
Assay: p97 ADP-Glo assay
Assay type: biochemical
Settings: Table 3
Text: ADP-Glo™ (Promega Corp.) is a bioluminescent, homogeneous assay that measures ADP formed from a biochemical reactions. Because of its high sensitivity, the assay is suitable for monitoring enzyme activities at very early substrate conversions requiring very low amount of enzymes.
The ADP-Glo assay can be conducted as described in Chou, T.-F.; Bulfer, S. L.; Weihl, C.

Chain of p97 ATPase WT (P55072 whole entry): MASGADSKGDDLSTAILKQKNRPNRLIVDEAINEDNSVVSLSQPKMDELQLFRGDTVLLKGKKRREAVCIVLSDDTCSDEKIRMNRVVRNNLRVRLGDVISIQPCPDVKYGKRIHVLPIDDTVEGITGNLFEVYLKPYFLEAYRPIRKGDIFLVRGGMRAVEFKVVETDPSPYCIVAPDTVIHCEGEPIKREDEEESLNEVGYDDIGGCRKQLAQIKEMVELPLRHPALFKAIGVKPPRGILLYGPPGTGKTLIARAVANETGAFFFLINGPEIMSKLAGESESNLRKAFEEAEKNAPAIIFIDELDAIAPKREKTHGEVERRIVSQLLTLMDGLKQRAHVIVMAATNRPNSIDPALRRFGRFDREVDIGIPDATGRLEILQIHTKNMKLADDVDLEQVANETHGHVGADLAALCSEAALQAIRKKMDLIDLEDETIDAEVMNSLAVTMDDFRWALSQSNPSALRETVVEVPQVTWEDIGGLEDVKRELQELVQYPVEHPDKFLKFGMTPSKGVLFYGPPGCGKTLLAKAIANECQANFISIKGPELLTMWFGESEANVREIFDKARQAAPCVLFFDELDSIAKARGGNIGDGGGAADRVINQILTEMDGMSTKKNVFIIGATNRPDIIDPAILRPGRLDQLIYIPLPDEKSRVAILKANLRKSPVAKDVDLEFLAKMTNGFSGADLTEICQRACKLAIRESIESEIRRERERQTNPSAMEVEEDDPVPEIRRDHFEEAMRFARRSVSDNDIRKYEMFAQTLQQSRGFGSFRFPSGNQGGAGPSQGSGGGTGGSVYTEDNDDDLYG

IC50: 6.2 µM
Compound: CC(C)N1CCC(NC2CCN(c3cccc(-c4cc5cc(C#N)ccc5[nH]4)c3)CC2)CC1
